# Measured values published in patent US12017995B2, “Crystalline forms and salt forms of a kinase inhibitor” (Exelixis, Inc., priority 2018, dated 2024).
# Entries after “also recorded” stand apart in the source; their conditions may differ. Like-named read-outs stand apart in the source and are kept apart here.
# Columns and labels:
# Type in all cases: physicochemical
# [1] = Stability testing in open vials, 75% RH chamber at 40° C., analysed by PLM and XRPD; details: 15 days / approximately 2 weeks, XRPD
# Description: (§1) The physical stability of Hemifumarate Form B was investigated. Compound 1 Hemifumarate Form B was slurried in water at ambient conditions for approximately 24 hours. In a separate experiment, the material was repeatedly washed with acetone.
# Stability Testing: Various Compound 1 salts were placed in open vials within a 75% RH chamber (saturated sodium chloride solution). The RH chamber was placed in a 40° C. oven for 15-16 days. Samples were analyzed by PLM and XRPD upon the end of the duration.
# [2] = Disproportionation check: water slurry at ambient conditions and repeated acetone wash, XRPD of recovered material
# Description: as §1
# Solids were then collected by vacuum filtration and analyzed by XRPD.
# [3] = Dynamic vapor sorption (DVS); details: for crystalline form of post-DVS sample by XRPD: after sorption/desorption; for water vapor uptake / weight gain by DVS: from 5% to 95% RH
# Description: Dynamic Vapor Sorption (DVS)
# a. VTI: Automated vapor sorption (VS) data were collected on a VTI SGA-100 Vapor Sorption Analyzer. NaCl and PVP were used as calibration standards. Samples were dried prior to analysis. Sorption and desorption data were collected over a range from 5% to 95% RH at 10% RH increments under a nitrogen purge. The equilibrium criterion used for analysis was less than 0.0100% weight change in 5 minutes with a maximum equilibration time of 3 hours. Data were not corrected for the initial moisture content of the samples.
# b. Intrinsic: Automated vapor sorption (VS) data were collected on a Surface Measurement System DVS Intrinsic instrument. Samples were not dried prior to analysis. Sorption and desorption data were collected over a range from 5% to 95% RH at 10% RH increments under a nitrogen purge. The equilibrium criterion used for analysis was less than 0.0100% weight change in 5 minutes with a maximum equilibration time of 3 hours. Data were not corrected for the initial moisture content of the samples.
# [4] = pKa and log P determination (Pion Inc./Sirius Analytical Instruments Ltd.)
# Description: pKa and log P Determination: pKa and log P determination were performed by Pion Inc./Sirius Analytical Instruments Ltd. in East Sussex, United Kingdom.
SMILES,physical stability at 40° C. and 75% RH [1],disproportionation of the salt in acetone ([2]; repeatedly washed with acetone),disproportionation of the salt in water ([2]; slurried in water at ambient conditions for approximately 24 hours),hygroscopicity by DVS ([3]; DVS isotherm),crystalline form of post-DVS sample by XRPD [3],water vapor uptake / weight gain by DVS [3],"weight gain/loss through the DVS sorption/desorption experiment ([3]; sorption/desorption 5% to 95% RH, without hysteresis)",hygroscopicity by DVS (class) ([3]; 5% to 95% RH),pKa [4],logP ([4]; read-out: cationic log P),logP ([4]; read-out: neutral log P)
CNC(=O)c1cc2c(Oc3ccc(NC(=O)C4(C(=O)Nc5ccc(F)cc5)CC4)cc3)ccnc2cc1OC [Compound 1 Hemifumarate Form B],physically stable; also recorded: did not change by XRPD,disproportionation was not evident; also recorded: did not cause disproportionation,disproportionation was not evident; also recorded: did not cause disproportionation,not hygroscopic,remained unchanged,about 0.2 wt %,less than 0.2%,,,,
"CNC(=O)c1cc2c(Oc3ccc(NC(=O)C4(C(=O)Nc5ccc(F)cc5)CC4)cc3)ccnc2cc1OC [Compound 1 Form A, 1-N′-(4-Fluorophenyl)-1-N-[4-[7-methoxy-6-(methylcarbamoyl)quinolin-4-yl]oxyphenyl]cyclopropane-1,1-dicarboxamide]",,,,,no change in crystalline form,~0.91 wt %,,Limited,5.43 ± 0.4,1.79 ± 0.8,4.5 ± 0.5
